In US6455562B1, “Cyclic AMP-specific phosphodiesterase inhibitors” (Icos Corporation, priority 1999, dated 2002):
Where two headings read alike, the source gives them in different places.

Tests used:
[1] = in vivo; cited from earlier work
recombinant human PDE4 [2] = tested on: T1, recombinant human PDE4; test: PDE4 inhibition, IC50 using recombinant human PDE4 (charcoal separation PDE assay); type: biochemical; details: read-out: IC50 value versus human recombinant PDE4
T1 construct: other: recombinant human PDE4
Description: The compounds of structural formula (II) were tested for an ability to inhibit PDE4. The ability of a compound to inhibit PDE4 activity is related to the IC50 value for the compound, i.e., the concentration of inhibitor required for 50% inhibition of enzyme activity. The IC50 value for compounds of structural formula (II) were determined using recombinant human PDE4. […]
Phosphodiesterase activity of the preparations was determined as follows. […] The [32P]5′-AMP or [32P]5′-GMP then was quantitatively converted to free [32P]phosphate and unlabeled adenosine or guanosine by the action of snake venom 5′-nucleotidase. […] PDE enzyme was present in quantities that yield <30% total hydrolysis of substrate (linear assay conditions). […] The reaction was stopped by addition of 200 μL of activated charcoal (25 mg/mL suspension in 0.1M NaH2PO4, pH 4) After centrifugation (750 X g for 3 minutes) to sediment the charcoal, a sample of the supernatant was taken for radioactivity determination in a scintillation counter and the PDE activity was calculated.

recombinant human PDE4 [3] = details: reported, prior art; read-out: reported 50% Inhibitory Concentration (IC50) with respect to inhibiting recombinant human PDE4; cited from earlier work

SMILES | IC50 (recombinant human PDE4 [3]) | other results
COc1ccc([C@@H]2CNC(=O)C2)cc1OC1CCCC1 (single isomer, unassigned) [(−)-enantiomer of rolipram, R-rolipram] | – | emetic potential relative to the (+)-enantiomer (S-rolipram) [1]: about ten-fold more emetic
COc1ccc([C@@H]2CN(Cc3ccccc3)C[C@@]2(C)c2nn[nH]n2)cc1OC1CCCC1 [Example 1] | – | IC50 (recombinant human PDE4 [2]): 7.9 µM
COc1ccc(C2CNC(=O)C2)cc1OC1CCCC1 (stereo not shown) [Rolipram] | ~200 nM | –
COC(=O)N1CC(c2ccc(OC)c(OC3CCCC3)c2)C(C)(C(C)=O)C1 (stereo not shown) [formula (I)] | ~2 nM | –
